Source: patent US8129396B2, “2-[1H-benzimidazol-2(3H)-ylidene]-2-(pyrimidin-2-yl)acetamides and 2-[benzothiazol-2(3H)-ylidene]-2-(pyrimidin-2-yl)acetamides as kinase inhibitors” (Telik, Inc., priority 2008, dated 2012)

Tests used:
[1] = molecular target: T1, VEGFR2 kinase (Homo sapiens, UniProt P35968); test: VEGFR2 kinase assay; format: biochemical; conditions: 6 μM ATP, 1 mM MnCl2; rounded to 1 significant figure
T1 construct: purchased Cell Signaling Technology
Text: (§1) The cell lines HL60 (human promyelocytic leukemia) and HCT116 (human colon carcinoma) were obtained from the American Type Culture Collection, Manassas, Va., U.S.A., and HUVEC-2 (human umbilical vein endothelial cells) from BD Biosciences, Bedford, Mass., U.S.A. Aurora A kinase was obtained from Upstate Biotech, Billerica, Mass., U.S.A.; Aurora B kinase from BPS Bioscience, San Diego, Calif., U.S.A.; and VEGFR2 kinase from Cell Signaling Technology, Danvers, Mass., U.S.A. The IMAP FP Screening Express kit was obtained from Molecular Devices, Sunnyvale, Calif., U.S.A.; the CellTiter-Glo assay kit from Promega Corporation, Madison, Wis., U.S.A.; and the Cellular DNA Cytometric Analysis Reagent Kit and BrdU labeling and detection kit from Roche Diagnostics Corporation, Indianapolis, Ind., U.S.A. All products were used in accordance with manufacturer's directions. Kinase inhibition assays and the histone phosphorylation (p-H3) assay were conducted in duplicate, and the cytotoxicity and HUVEC proliferation assays were conducted in triplicate, in each case with solvent control.
This assay was performed as for the Aurora A kinase assay, using VEGFR2 kinase, CSKtide as the substrate with 6 μM ATP and 1 mM MnCl2, a kinase reaction time of 1 hr, and dilution of the binding reagent 1:1200 in binding buffer A/binding buffer B (1:1).

[2] = molecular target: T2, Aurora B kinase (Homo sapiens, UniProt Q96GD4); test: Aurora B kinase assay (IMAP fluorescence polarization); format: biochemical; conditions: 10 μM ATP; rounded to 1 significant figure; read-out: Aur-B IC50
T2 construct: purchased BPS Bioscience
T2 sequence (Q96GD4 whole entry): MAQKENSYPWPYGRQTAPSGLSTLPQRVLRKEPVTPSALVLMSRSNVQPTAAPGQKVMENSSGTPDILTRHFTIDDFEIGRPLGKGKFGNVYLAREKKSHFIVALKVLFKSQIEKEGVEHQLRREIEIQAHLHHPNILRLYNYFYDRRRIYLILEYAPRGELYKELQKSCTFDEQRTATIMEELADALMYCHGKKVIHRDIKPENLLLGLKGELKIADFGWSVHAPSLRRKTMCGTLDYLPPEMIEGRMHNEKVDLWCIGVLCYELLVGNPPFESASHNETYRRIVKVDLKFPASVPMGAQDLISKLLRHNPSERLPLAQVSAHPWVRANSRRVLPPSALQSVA
Text: as §1
(§2) The kinase reaction was initiated by adding 100 nM fluorescein labeled PKAtide and 10 μM adenosine triphosphate (ATP), and allowed to continue for 45 min at room temperature, after which it was stopped by adding binding reagent (1:400 dilution in binding buffer A). After 30 min of room temperature incubation with shaking, the fluorescence polarization was measured on a LJL plate reader. Aurora B kinase assay: performed as for the Aurora A kinase assay, but using Aurora B kinase instead of Aurora A kinase.

[3] = tested on: HUVEC-2 (human umbilical vein endothelial cells); test: HUVEC VEGF-dependent proliferation assay (BrdU); format: cell-based; conditions: VEGF (25 ng/mL)-dependent proliferation, read-out: HUVEC IC50
Text: as §1
HUVEC-2 cells were seeded at 10^4 cells/well in a 96-well plate coated with 0.1% gelatin in complete medium. […] The compounds were serially diluted in DMSO, and added to the cells at 0.5% DMSO final concentration. After 2 hr, VEGF (25 ng/mL) was added; and after a further day, 5-bromo-2-deoxyuridine (BrdU, 10 μM) was added to label proliferating cells, and the cells incubated for another day. The plates were then processed using the Roche BrdU labeling and detection kit, and the VEGF-dependent antiproliferative activity of the compounds determined.

[4] = tested on: HCT116 (human colon carcinoma) cells; test: HCT116 cytotoxicity assay (CellTiter-Glo); format: cell-based; conditions: HCT-116, 72 h, cytotoxicity, three days culture, read-out: HCT116 IC50
Text: as §1
Log-phase cells were trypsinized, collected by centrifugation, and resuspended in a small volume of fresh medium, and the density of viable cells was determined following Trypan Blue staining. Cells were diluted in fresh media (1×10^4 cells/mL for HL60 and 4×10^4 cells/mL for HCT116 cells), the test compounds (concentrations between 0.1 μM and 200 μM, dissolved in DMSO, 50 μL) added immediately after dilution to achieve a final DMSO concentration of 0.5%, then the suspensions added at 150 μL/well to 96-well plates, and incubated overnight to allow attachment in the case of adherent cells. The cells were cultured for three days (about three doubling times). The cells were then collected by centrifugation, and 100 μL of the culture supernatant was replaced by the CellTiter-Glo reagent. After incubation for 15 minutes at room temperature, the plate was read with a luminometer.

[5] = tested on: p-H3 in HCT116 cells; test: Histone phosphorylation (p-H3) assay; format: cell-based; conditions: Homo sapiens, HCT-116; HCT116 cells, 4 hr incubation; read-out: p-H3 IC50
Text: as §1
Log phase HCT116 cells were seeded at 2.5×10^4 cells/well in a 96-well plate and allowed to attach overnight. The test compounds were diluted in DMSO (8 concentrations with serial 3-fold dilutions) and added to the cells (0.5% DMSO final concentration), and the cells incubated for 4 hr. The cells were then washed three times with cold phosphate-buffered saline (PBS), and lysis buffer was added. After 30 min shaking at 4° C. and centrifugation, the supernatants were transferred to a nitrocellulose membrane by a “dot-blot” apparatus. After washing the wells, the membrane was processed for Western blot. Detection of p-H3 and β-actin was performed on the same membrane with primary rabbit anti-p-H3 and mouse anti-β-actin antibodies followed by secondary goat anti-rabbit IRDye800 and goat anti-mouse AlexaFluor 680 antibodies. The membranes were scanned on an Odyssey scanner.

[6] = molecular target: T3, Aurora A kinase (Homo sapiens, UniProt O14965); test: Aurora A kinase assay (IMAP fluorescence polarization); format: biochemical; conditions: 10 μM ATP; rounded to 1 significant figure; read-out: Aur-A IC50
T3 construct: purchased Upstate Biotech
T3 sequence (O14965 1-403): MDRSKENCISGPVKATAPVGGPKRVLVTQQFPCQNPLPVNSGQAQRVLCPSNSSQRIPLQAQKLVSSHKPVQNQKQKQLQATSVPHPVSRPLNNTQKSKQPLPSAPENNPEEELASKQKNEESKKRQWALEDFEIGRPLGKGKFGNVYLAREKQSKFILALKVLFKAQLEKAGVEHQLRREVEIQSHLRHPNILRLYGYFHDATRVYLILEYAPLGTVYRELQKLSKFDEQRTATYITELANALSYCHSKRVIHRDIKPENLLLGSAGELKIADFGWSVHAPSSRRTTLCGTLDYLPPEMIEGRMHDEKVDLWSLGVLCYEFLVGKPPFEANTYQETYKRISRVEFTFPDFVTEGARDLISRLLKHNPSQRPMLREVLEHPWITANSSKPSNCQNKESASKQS
Text: as §1
as §2, with “Aurora A kinase assay: the test compounds were diluted in dimethylsulfoxide (DMSO, eight concentrations with serial 3-fold dilutions) and incubated (final DMSO concentration 2.5%) with Aurora A kinase at room temperature for 5 min in kinase reaction buffer with 1 mM dithiothreitol (IMAP FP Screening Express). The” for “The”

T1 sequence (P35968 20-1356): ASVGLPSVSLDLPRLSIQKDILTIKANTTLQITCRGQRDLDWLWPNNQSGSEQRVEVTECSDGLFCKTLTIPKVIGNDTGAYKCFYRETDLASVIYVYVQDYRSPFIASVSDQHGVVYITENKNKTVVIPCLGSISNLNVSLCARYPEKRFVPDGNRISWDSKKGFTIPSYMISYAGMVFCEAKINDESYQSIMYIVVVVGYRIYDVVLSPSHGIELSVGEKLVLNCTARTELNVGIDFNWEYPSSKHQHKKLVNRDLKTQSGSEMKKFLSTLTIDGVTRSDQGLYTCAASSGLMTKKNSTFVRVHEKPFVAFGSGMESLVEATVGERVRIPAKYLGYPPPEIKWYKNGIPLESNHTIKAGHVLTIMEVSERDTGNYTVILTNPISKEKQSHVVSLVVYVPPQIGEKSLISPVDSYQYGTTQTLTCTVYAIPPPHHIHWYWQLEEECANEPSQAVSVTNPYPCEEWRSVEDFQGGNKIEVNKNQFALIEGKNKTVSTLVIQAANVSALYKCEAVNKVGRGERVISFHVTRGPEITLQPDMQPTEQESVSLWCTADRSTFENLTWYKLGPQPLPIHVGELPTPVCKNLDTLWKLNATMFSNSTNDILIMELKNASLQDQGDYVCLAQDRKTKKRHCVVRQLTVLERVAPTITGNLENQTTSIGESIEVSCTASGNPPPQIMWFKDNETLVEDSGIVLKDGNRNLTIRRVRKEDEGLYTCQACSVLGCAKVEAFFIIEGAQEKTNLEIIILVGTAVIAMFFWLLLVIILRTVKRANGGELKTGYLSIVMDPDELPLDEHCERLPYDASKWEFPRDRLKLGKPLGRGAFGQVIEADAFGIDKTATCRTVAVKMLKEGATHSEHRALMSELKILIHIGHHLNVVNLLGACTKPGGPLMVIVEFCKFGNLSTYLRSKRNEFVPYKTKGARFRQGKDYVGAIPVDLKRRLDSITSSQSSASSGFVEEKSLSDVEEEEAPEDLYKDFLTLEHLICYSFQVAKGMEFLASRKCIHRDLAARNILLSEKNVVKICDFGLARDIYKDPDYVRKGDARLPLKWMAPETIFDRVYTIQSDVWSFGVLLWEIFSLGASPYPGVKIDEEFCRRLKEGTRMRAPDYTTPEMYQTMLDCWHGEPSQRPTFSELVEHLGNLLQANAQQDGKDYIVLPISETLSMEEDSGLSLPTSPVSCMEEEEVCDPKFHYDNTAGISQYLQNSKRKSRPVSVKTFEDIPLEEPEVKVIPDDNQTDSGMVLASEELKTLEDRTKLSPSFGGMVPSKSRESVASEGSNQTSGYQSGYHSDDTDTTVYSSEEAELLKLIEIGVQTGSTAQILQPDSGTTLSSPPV

SMILES	IC50 [1] [nM]	IC50 [2] [nM]	IC50 [5] [nM]	IC50 [6] [nM]	IC50 [3] [nM]	IC50 [4] [nM]
NC(=O)/C(=C1\Nc2ccc(NC(=O)[C@@H]3CCCN3)cc2N1)c1nccc(C(F)(F)F)n1 [Compound 80A]	50	4	90	10	100	500
CN1CCN(CCC(=O)Nc2ccc3c(c2)N/C(=C(/C(N)=O)c2nccc(C(F)(F)F)n2)N3)CC1 [Compound 83A]	60	10	200	6	200	200
COc1ccnc(/C(C(N)=O)=C2/Nc3ccc(CN4CCOCC4)cc3S2)n1 [Compound 92A]	400	30	500	70	60	5000
NC(=O)/C(=C1\Nc2ccc(OCCN3CCOCC3)cc2S1)c1nccc(C(F)(F)F)n1 [Compound 111A]	100	9	400	20	300	2000
NC(=O)/C(=C1\Nc2cc(OCCN3CCOCC3)ccc2S1)c1nccc(C(F)(F)F)n1 [Compound 112A]	200	20	900	20	200	2000
CN1CCN(S(=O)(=O)c2ccc3c(c2)S/C(=C(/C(N)=O)c2nccc(C(F)(F)F)n2)N3)CC1 [Compound 126A]	70	20	2000	20	30	2000
NC(=O)/C(=C1\Nc2ccc(S(=O)(=O)NCCN3CCOCC3)cc2S1)c1nccc(C(F)(F)F)n1 [Compound 128A]	60	20	600	10	60	900
NC(=O)/C(=C1\Nc2ccc(S(=O)(=O)N3CCNCC3)cc2S1)c1nccc(C(F)(F)F)n1 [Compound 129A]	100	10	1000	30	300	1000
NC(=O)/C(=C1\Nc2ccccc2S1)c1ncc(C(=O)NCCCN2CCOCC2)c(C(F)(F)F)n1 [Compound 131A]	200	60	900	90	800	2000

The next compounds have a lower IC50 [1] than those just listed; values first:

IC50 [1] [nM]	IC50 [2] [nM]	IC50 [5] [nM]	IC50 [6] [nM]	SMILES	IC50 [3] [nM]	IC50 [4] [nM]
10	7	400	8	CN1CCCCC1C(=O)Nc1ccc2c(c1)N/C(=C(/C(N)=O)c1nccc(C(F)(F)F)n1)N2 (stereo not drawn) [Compound 82A]	30	80
10	20	100	2	NC(=O)/C(=C1\Nc2ccc(CN3CCOCC3)cc2S1)c1nccc(C(F)(F)F)n1 [Compound 91A]	40	300
10	20	100	20	CN1CCN(Cc2ccc3c(c2)S/C(=C(/C(N)=O)c2nccc(C(F)(F)F)n2)N3)CC1 [Compound 93A]	30	300
30	20	900	3	Cn1ccnc1-c1ccc2c(c1)S/C(=C(/C(N)=O)c1nccc(C(F)(F)F)n1)N2 [Compound 106A]	80	2000
40	20	400	30	NC(=O)/C(=C1\Nc2ccc(OCCCN3CCOCC3)cc2S1)c1nccc(C(F)(F)F)n1 [Compound 113A]	200	600
40	20	50	40	CN1CCN(CCOc2ccc3c(c2)S/C(=C(/C(N)=O)c2nccc(C(F)(F)F)n2)N3)CC1 [Compound 114A]	40	600
20	30	200	40	CN1CCN(CCCOc2ccc3c(c2)S/C(=C(/C(N)=O)c2nccc(C(F)(F)F)n2)N3)CC1 [Compound 115A]	100	100
9	8	80	40	CN(C)CCOc1ccc2c(c1)S/C(=C(/C(N)=O)c1nccc(C(F)(F)F)n1)N2 [Compound 116A]	100	400
6	6	200	9	CN1CCN(c2ccc3c(c2)N/C(=C(/C(N)=O)c2nccc(C(F)(F)F)n2)N3)CC1 [Compound 119A]	200	1000
2	9	500	30	CN1CCN(c2ccc3c(c2)S/C(=C(/C(N)=O)c2nccc(C(F)(F)F)n2)N3)CC1 [Compound 120A]	2000	2000
20	8	90	30	NC(=O)/C(=C1\Nc2ccc(N3CCC(N4CCCCC4)CC3)cc2S1)c1nccc(C(F)(F)F)n1 [Compound 121A]	900	1000
20	9	400	20	NC(=O)/C(=C1\Nc2ccc(N3CCC(N4CCOCC4)CC3)cc2S1)c1nccc(C(F)(F)F)n1 [Compound 122A]	7000	4000
20	10	200	30	CN(CCN1CCCCC1)c1ccc2c(c1)S/C(=C(/C(N)=O)c1nccc(C(F)(F)F)n1)N2 [Compound 125A]	600	3000
